Results on 32 compounds are retold here after PMC4648043, “Development of Small-Molecule Trypanosoma brucei N-Myristoyltransferase Inhibitors: Discovery and Optimisation of a Novel Binding Mode” (Chemmedchem, 2015).

One test addresses T1, TbNMT (Trypanosoma brucei brucei, UniProt Q388H8).
T1 sequence (Q388H8 1-446): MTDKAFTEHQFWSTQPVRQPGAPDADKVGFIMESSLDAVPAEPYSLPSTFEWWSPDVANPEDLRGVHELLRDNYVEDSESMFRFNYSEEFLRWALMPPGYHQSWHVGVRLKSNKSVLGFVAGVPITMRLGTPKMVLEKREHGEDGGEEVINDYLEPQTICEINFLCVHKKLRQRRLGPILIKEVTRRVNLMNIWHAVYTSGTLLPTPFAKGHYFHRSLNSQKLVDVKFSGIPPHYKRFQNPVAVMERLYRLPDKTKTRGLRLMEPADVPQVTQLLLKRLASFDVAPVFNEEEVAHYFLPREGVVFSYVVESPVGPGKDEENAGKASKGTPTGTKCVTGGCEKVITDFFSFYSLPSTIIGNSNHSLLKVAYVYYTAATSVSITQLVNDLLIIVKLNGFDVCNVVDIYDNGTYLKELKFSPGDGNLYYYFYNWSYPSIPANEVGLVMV
The experiment in a line: biochemical. Type of test: biochemical. The conditions noted are these: for LE TbNMT (ligand efficiency): calculated as 0.6 ln(IC50)/(heavy atom count); for IC50: mean of two or more determinations, read-out: IC50 TbNMT.

For another test, the target named is T2, hNMT (Homo sapiens, UniProt P30419).
T2 sequence (P30419 1-496): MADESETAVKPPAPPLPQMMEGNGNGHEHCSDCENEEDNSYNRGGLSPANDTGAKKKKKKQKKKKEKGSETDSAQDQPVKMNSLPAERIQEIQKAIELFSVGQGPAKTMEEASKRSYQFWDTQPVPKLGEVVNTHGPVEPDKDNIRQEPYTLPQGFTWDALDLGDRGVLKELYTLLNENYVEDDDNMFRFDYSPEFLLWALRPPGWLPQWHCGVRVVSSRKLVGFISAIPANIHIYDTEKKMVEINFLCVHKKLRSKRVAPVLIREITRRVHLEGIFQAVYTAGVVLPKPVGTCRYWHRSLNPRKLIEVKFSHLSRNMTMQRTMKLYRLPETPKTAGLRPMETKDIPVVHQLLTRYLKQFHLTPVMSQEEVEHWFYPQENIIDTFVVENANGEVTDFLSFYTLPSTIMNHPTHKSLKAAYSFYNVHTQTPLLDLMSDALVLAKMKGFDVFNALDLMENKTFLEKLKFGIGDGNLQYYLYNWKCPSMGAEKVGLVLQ
Put plainly: human NMT enzyme inhibition assay. Type of test: biochemical. The conditions noted are these: mean of two or more determinations.

The test system of another test is T. brucei. The experiment in a line: T. brucei parasite growth assay. In kind it is cell-based, Trypanosoma brucei. The settings on record: Trypanosoma brucei; mean of two or more determinations.

Method for T. brucei: (§1) Parasite and NMT assays: These were carried out as described previously.[8–10]
Method for TbNMT: as §1
Method for hNMT: as §1

As to `COc1cc(C2SCC(=O)N2Cc2ccco2)ccc1O` (centres unmarked) [Compound 2, 3-(Furan-2-ylmethyl)-2-(4-hydroxy-3-methoxyphenyl)thiazolidin-4-one], at TbNMT, the “LE TbNMT (ligand efficiency)” value is reported as 0.33 and the IC50 is 7.6 µM. In addition, the IC50 against hNMT was more than 100 µM. The EC50 in the test on T. brucei is more than 50 µM.

As for `CCN1C(=O)CSC1c1ccc(O)c(OC)c1` (centres unmarked) [Compound 3, 3-Ethyl-2-(4-hydroxy-3-methoxyphenyl)thiazolidin-4-one], the IC50 at TbNMT and on hNMT was more than 100 µM in each case.

`COc1cc(C2SCC(=O)N2c2ccccn2)ccc1O` (centres unmarked) [Compound 4, 2-(4-Hydroxy-3-methoxyphenyl)-3-(pyridin-2-yl)thiazolidin-4-one]: the half-maximal inhibitory concentration (IC50) on TbNMT and against hNMT was more than 100 µM each time.

With `COc1cccc(C2SCC(=O)N2Cc2ccco2)c1` (centres unmarked) [Compound 5, 3-(Furan-2-ylmethyl)-2-(3-methoxyphenyl)thiazolidin-4-one], the 50% inhibitory concentration (IC50) on TbNMT and on hNMT was more than 100 µM in each case.

As for `O=C1CSC(c2ccccn2)N1c1cccc(Cl)c1` (centres unmarked) [Compound 7], on TbNMT, the “LE TbNMT (ligand efficiency)” value is recorded as 0.36 and the IC50 was found to be 13 µM. Moreover, the IC50 against hNMT is more than 50 µM.

`O=C1CSC(c2ccccn2)N1c1ccc2ccccc2c1` (centres unmarked) [Compound 8]: the IC50 on TbNMT and against hNMT was more than 100 µM throughout.

Turning to `O=C1CSC(c2ccccn2)N1c1ccccc1` (centres unmarked) [Compound 9], at TbNMT, the “LE TbNMT (ligand efficiency)” value is 0.35 and the IC50 turned out to be 31 µM. For the same compound, half-maximal inhibition on hNMT (IC50) was put at 66 µM.

As for `O=C1CSC(c2ccccn2)N1c1ccc(Cl)cc1` (centres unmarked) [Compound 10, 3-(4-Chlorophenyl)-2-(pyridin-2-yl)thiazolidin-4-one], the IC50 on TbNMT and at hNMT was more than 100 µM in each case. This compound had an EC50 in the test on T. brucei of more than 50 µM.

Consider `O=C1CSC(c2ccccn2)N1c1ccccc1Cl` (centres unmarked) [Compound 11, 3-(2-Chlorophenyl)-2-(pyridin-2-yl)thiazolidin-4-one], for which, on TbNMT, the “LE TbNMT (ligand efficiency)” value is on record as 0.32 and the IC50 was found to be 32 µM. Also, the IC50 against hNMT was more than 100 µM. For the same compound, the EC50 in the test with T. brucei is more than 50 µM.

For `CCOC(=O)C(C)N1C(=O)COc2ccccc21` (centres unmarked) [Compound 15, Ethyl 2-(3-oxo-2H-benzo[b][1,4]oxazin-4(3H)-yl)propanoate], the IC50 at TbNMT and against hNMT was more than 100 µM each time.

In the case of `CCOC(=O)CCN1C(=O)COc2ccccc21` [Compound 16, Ethyl 3-(3-oxo-2H-benzo[b][1,4]oxazin-4(3H)-yl)propanoate], at TbNMT, the “LE TbNMT (ligand efficiency)” value was 0.38 and the half-inhibitory concentration (IC50) came out at 13 µM. Besides, the IC50 against hNMT was more than 100 µM.

`O=C(CCN1C(=O)COc2ccccc21)N1CCCC1` [Compound 17, 4-(3-Oxo-3-(pyrrolidin-1-yl)propyl)-2H-benzo[b][1,4]oxazin-3(4H)-one]: on TbNMT, the “LE TbNMT (ligand efficiency)” value is on record as 0.34. In addition, the IC50 is 11 µM at TbNMT and more than 100 µM against hNMT.

`CN(C)C(=O)CCN1C(=O)COc2ccccc21` [Compound 18, N,N-Dimethyl-3-(3-oxo-2H-benzo[b][1,4]oxazin-4(3H)-yl)propanamide]: the IC50 at TbNMT is 50 µM; on hNMT it was more than 100 µM.

`CN(C)C(=O)CN1C(=O)COc2ccccc21` [Compound 19, N,N-Dimethyl-2-(3-oxo-2H-benzo[b][1,4]oxazin-4(3H)-yl)acetamide]: the IC50 on TbNMT and against hNMT was more than 100 µM each time.

`CNC(=O)CN1C(=O)COc2ccccc21` [Compound 20, N-Methyl-2-(3-oxo-2H-benzo[b][1,4]oxazin-4(3H)-yl)acetamide]: the IC50 on TbNMT and on hNMT was more than 100 µM in each case.

Consider `O=C(CN1C(=O)COc2ccccc21)N1CCCC1` [Compound 21, 4-(2-Oxo-2-(pyrrolidin-1-yl)ethyl)-2H-benzo[b][1,4]oxazin-3(4H)-one], for which the half-maximal inhibitory concentration (IC50) on TbNMT is more than 100 µM.

Regarding `O=C1COc2ccccc2N1Cc1nc2ccccc2o1` [Compound 22, 4-(Benzo[d]oxazol-2-ylmethyl)-2H-benzo[b][1,4]oxazin-3(4H)-one], at TbNMT, the “LE TbNMT (ligand efficiency)” value is recorded as 0.31 and the IC50 turned out to be 24 µM. Besides, on hNMT, the IC50 is more than 100 µM.

Regarding `Cc1cc(CN2C(=O)COc3ccccc32)no1` [Compound 23, 4-((5-Methylisoxazol-3-yl)methyl)-2H-benzo[b][1,4]oxazin-3(4H)-one], on TbNMT, the “LE TbNMT (ligand efficiency)” value is 0.43 and the half-inhibitory concentration (IC50) was 2.9 µM. Also, the IC50 against hNMT was more than 100 µM.

For the compound `Cc1nc(CN2C(=O)COc3ccccc32)cs1` [Compound 24, 4-((2-Methylthiazol-4-yl)methyl)-2H-benzo[b][1,4]oxazin-3(4H)-one], the “LE TbNMT (ligand efficiency)” value on TbNMT was 0.33. For the same compound, the IC50 at TbNMT is 44 µM; at hNMT it was more than 100 µM.

For `O=C1COc2ccccc2N1Cc1ccccn1` [Compound 25, 4-(Pyridin-2-ylmethyl)-2H-benzo[b][1,4]oxazin-3(4H)-one], at TbNMT, the “LE TbNMT (ligand efficiency)” value is 0.38 and the IC50 came out at 22 µM. This compound gave an IC50 at hNMT of more than 100 µM.

Regarding `O=C1COc2ccccc2N1Cc1ccncc1` [Compound 26, 4-(Pyridin-4-ylmethyl)-2H-benzo[b][1,4]oxazin-3(4H)-one], the IC50 on TbNMT and against hNMT was more than 100 µM each time.

For the compound `Cc1noc(CN2C(=O)COc3ccccc32)n1` [Compound 27, 4-((3-Methyl-1,2,4-oxadiazol-5-yl)methyl)-2H-benzo[b][1,4]oxazin-3(4H)-one], the IC50 on TbNMT and against hNMT was more than 100 µM in each case.

As for `Cc1nc(CN2C(=O)COc3ccccc32)no1` [Compound 28, 4-((5-Methyl-1,2,4-oxadiazol-3-yl)methyl)-2H-benzo[b][1,4]oxazin-3(4H)-one], on TbNMT, the “LE TbNMT (ligand efficiency)” value is 0.40 and the IC50 came to 7 µM. The IC50 against hNMT was more than 100 µM.

With `CC(C)Cc1nc(CN2C(=O)COc3ccccc32)no1` [Compound 29, 4-((5-Isobutyl-1,2,4-oxadiazol-3-yl)methyl)-2H-benzo[b][1,4]oxazin-3(4H)-one], the “LE TbNMT (ligand efficiency)” value on TbNMT is recorded as 0.32. Further, the values for the IC50 on TbNMT and on hNMT were 18 µM and more than 100 µM, respectively.

Turning to `CC(C)Cc1cc(CN2C(=O)COc3ccccc32)no1` [Compound 30, 4-((5-Isobutylisoxazol-3-yl)methyl)-2H-benzo[b][1,4]oxazin-3(4H)-one], at TbNMT, the “LE TbNMT (ligand efficiency)” value was 0.34 and the IC50 amounted to 9 µM. At hNMT, this compound had a half-maximal inhibitory concentration (IC50) of 30 µM.

For the compound `Cc1cccc(CN2C(=O)COc3ccccc32)n1` [Compound 31, 4-((6-Methylpyridin-2-yl)methyl)-2H-benzo[b][1,4]oxazin-3(4H)-one], at TbNMT, the “LE TbNMT (ligand efficiency)” value is 0.31 and the IC50 amounted to 41 µM. This compound registered an IC50 at hNMT of 69 µM.

For the compound `Cn1ccc(CN2C(=O)COc3ccccc32)n1` [Compound 32, 4-((1-Methyl-1H-pyrazol-3-yl)methyl)-2H-benzo[b][1,4]oxazin-3(4H)-one], the IC50 on TbNMT is 80 µM; on hNMT, more than 100 µM.

In the case of `Cc1cc(CN2C(=O)C(C)Oc3ccccc32)no1` (centres unmarked) [Compound 34, 2-Methyl-4-((5-methylisoxazol-3-yl)methyl)-2H-benzo[b][1,4]oxazin-3(4H)-one], the 50% inhibitory concentration (IC50) on TbNMT and against hNMT was more than 100 µM in each case.

Turning to `Cc1cc(CN2C(=O)COc3ccc(Cl)cc32)no1` [Compound 35, 6-Chloro-4-((5-methylisoxazol-3-yl)methyl)-2H-benzo[b][1,4]oxazin-3(4H)-one], the IC50 on TbNMT and on hNMT was more than 100 µM in each case.

For `Cc1cc(CN2C(=O)COc3cc(Cl)ccc32)no1` [Compound 36, 7-Chloro-4-((5-methylisoxazol-3-yl)methyl)-2H-benzo[b][1,4]oxazin-3(4H)-one], the “LE TbNMT (ligand efficiency)” value at TbNMT is 0.37. Further, the IC50 at TbNMT was 7.1 µM; on hNMT, more than 100 µM.

With `Cc1cc(CN2C(=O)COc3cc(Br)ccc32)no1` [Compound 37, 7-Bromo-4-((5-methylisoxazol-3-yl)methyl)-2H-benzo[b][1,4]oxazin-3(4H)-one], on TbNMT, the “LE TbNMT (ligand efficiency)” value is reported as 0.37 and the IC50 is 6.4 µM. The compound further showed an IC50 against hNMT of more than 100 µM.

As for `Cc1cc(CN2C(=O)COc3c(Br)cccc32)no1` [Compound 38, 8-Bromo-4-((5-methylisoxazol-3-yl)methyl)-2H-benzo[b][1,4]oxazin-3(4H)-one], at TbNMT, the “LE TbNMT (ligand efficiency)” value was 0.37 and the IC50 was 11 µM. The IC50 against hNMT is more than 100 µM.
